Starred links: 1 amine or outer side, 2 acyl side, 3 side chain; linkers in the order of their positions; H or OH if unused. Non-standard residues stand in square brackets, D forms with d. Groups on a side chain read outwards from the residue. *: point of attachment. C20 diacid = O=C(O)CCCCCCCCCCCCCCCCCCC(=O)*; C18 diacid = O=C(O)CCCCCCCCCCCCCCCCC(=O)*; γGlu = O=C(O)[C@H](CCC(=O)[*:2])N[*:1]; 4Pal = N[C@@H](Cc1ccncc1)C(=O)O; αMeL = CC(C)C[C@](C)(N)C(=O)O; Orn = NCCC[C@H](N)C(=O)O; AEEA = NCCOCCOCC(=O)O; Aib = CC(C)(N)C(=O)O
Experiments:
Assay type in all cases: cell-based
hGIPR [1] = target: T1, hGIPR (Homo sapiens, UniProt P48546); test: Functional cAMP activity in the presence of 1% HSA; details: read-out: cAMP Rel EC50, hGIPR
T1 sequence (P48546 22-466): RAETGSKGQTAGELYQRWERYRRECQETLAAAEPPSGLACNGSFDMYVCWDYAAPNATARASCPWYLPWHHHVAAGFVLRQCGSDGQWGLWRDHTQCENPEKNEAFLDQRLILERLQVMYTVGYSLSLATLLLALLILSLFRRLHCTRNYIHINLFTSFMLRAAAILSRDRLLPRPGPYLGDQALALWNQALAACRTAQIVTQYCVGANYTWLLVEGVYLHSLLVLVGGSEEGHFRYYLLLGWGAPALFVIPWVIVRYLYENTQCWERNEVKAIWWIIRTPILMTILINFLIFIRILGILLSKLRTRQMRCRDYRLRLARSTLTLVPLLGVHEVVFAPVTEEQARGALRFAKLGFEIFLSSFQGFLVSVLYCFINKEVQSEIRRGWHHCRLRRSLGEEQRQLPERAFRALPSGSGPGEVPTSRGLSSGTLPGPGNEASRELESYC

hGLP-1R [2] = target: T2, hGLP-1R (Homo sapiens, UniProt P43220); test: Functional cAMP activity in the presence of 1% HSA; details: read-out: cAMP Rel EC50, hGLP-1R
T2 sequence (P43220 24-463): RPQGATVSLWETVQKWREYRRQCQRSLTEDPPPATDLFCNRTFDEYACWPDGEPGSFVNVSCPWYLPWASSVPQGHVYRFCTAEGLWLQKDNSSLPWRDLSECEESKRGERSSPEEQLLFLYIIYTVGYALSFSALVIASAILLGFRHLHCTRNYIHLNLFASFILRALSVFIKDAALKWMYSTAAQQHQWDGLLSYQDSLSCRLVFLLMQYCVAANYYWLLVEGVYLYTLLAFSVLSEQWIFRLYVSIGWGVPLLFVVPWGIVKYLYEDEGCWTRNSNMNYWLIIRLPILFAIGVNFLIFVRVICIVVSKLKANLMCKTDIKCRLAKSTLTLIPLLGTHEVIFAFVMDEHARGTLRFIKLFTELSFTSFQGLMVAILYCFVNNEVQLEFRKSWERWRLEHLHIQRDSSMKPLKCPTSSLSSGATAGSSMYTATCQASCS

human GcgR = human GcgR (Homo sapiens, UniProt P47871); test: Functional cAMP activity in the presence of 1% HSA; details: read-out: cAMP Rel EC50, hGcgR
human GcgR, sequence (P47871 26-477): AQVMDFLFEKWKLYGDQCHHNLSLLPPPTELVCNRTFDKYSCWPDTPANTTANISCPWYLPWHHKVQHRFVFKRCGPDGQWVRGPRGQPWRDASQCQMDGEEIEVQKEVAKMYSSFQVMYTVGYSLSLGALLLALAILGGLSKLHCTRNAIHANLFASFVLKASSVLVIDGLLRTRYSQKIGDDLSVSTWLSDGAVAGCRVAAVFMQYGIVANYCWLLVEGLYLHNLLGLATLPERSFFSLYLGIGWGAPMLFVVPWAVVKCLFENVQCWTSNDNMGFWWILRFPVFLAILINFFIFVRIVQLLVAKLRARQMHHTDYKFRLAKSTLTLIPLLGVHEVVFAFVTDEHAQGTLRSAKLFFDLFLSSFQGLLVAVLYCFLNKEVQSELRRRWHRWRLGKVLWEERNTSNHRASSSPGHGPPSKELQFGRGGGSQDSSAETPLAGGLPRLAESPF

hGIPR [3] = target: T1, hGIPR; test: Functional cAMP activation in the presence of 0.1% casein (no HSA); details: in the presence of 0.1% casein (no HSA); geometric mean; read-out: Relative cAMP EC50, hGIPR;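 on Relative cAMP EC50, hGIPR: intracellular cAMP rise after 30 min at 37 °C read by HTRF against a standard curve, scaled between buffer alone (0%) and top control ligand concentration (100%), four-parameter fit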;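 on Relative cAMP EC50, hGLP-1R: intracellular cAMP rise after 30 min at 37 °C read by HTRF, normalized between buffer only (0%) and maximal control ligand (100%), four-parameter variable-slope fit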;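 on Relative cAMP EC50, hGcgR: intracellular cAMP rise after 30 min at 37 °C, read by HTRF against a cAMP standard curve, scaled from buffer only (0%) to maximal control ligand response (100%)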
hGLP-1R [4] = target: T2, hGLP-1R; test: as above; details: in the presence of 0.1% casein (no HSA); geometric mean; read-out: Relative cAMP EC50, hGLP-1R
Experimental: After a 30-minute incubation at 37° C., the resulting increase in intracellular cAMP is quantitatively determined using the CisBio CAMP Dynamic 2 HTRF Assay Kit (62AM4PEJ). Briefly, cAMP levels within the cell are detected by adding the cAMP-d2 conjugate in cell lysis buffer followed by the antibody anti-cAMP-Eu^3+-Cryptate, also in cell lysis buffer.
Intracellular cAMP levels are determined by extrapolation using a standard curve. Dose response curves of compounds are plotted as the percentage of stimulation normalized to minimum (buffer only) and maximum (maximum concentration of each control ligand) values and analyzed using a four parameter non-linear regression fit with a variable slope (Genedata Screener 13). EC50 is the concentration of compound causing half-maximal simulation in a dose response curve. Each relative EC50 value for the Geometric mean calculation is determined from a curve fitting.

hGcgR = hGcgR (Homo sapiens, UniProt P47871); test: as above; details: in the presence of 0.1% casein (no HSA); geometric mean; read-out: Relative cAMP EC50, hGcgR;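 further: intracellular cAMP rise after 30 min at 37 °C, read by HTRF against a cAMP standard curve, scaled from buffer only (0%) to maximal control ligand response (100%)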
hGcgR, sequence (P47871 26-477): as above

human GLP1-R = human GLP1-R (Homo sapiens, UniProt P43220); test: GLP1-R internalization assay in HEK293 cells; details: for EC50: HEK293 cells expressing SNAP-GLP-1R, read-out: GLP1R Internalization EC50; for Internalization % TOP: normalized to maximum concentration of GLP-1 (100%)
human GLP1-R, sequence (P43220 24-463): as the sequence (P43220 24-463) above

Molecule	EC50 (hGIPR [1]) [µM]	EC50 (hGLP-1R [2]) [µM]	EC50 (human GcgR) [µM]	EC50 (hGIPR [3]) [µM]	EC50 (hGLP-1R [4]) [µM]	EC50 (hGcgR) [µM]	EC50 (human GLP1-R) [µM]	Internalization % TOP (human GLP1-R) [%]
H-Y[Aib]QGTFTSD[4Pal]SK[αMeL]LDKK([AEEA-γGlu-C18 diacid])AQ[Aib]AFIEYLIE[Aib]GESSGAPPPSGS-NH2 [Example 280]	0.0156	0.171	1.6	0.000105	0.00095	0.00863	0.0394	74.9
H-Y[Aib]QGTFTSDFS[Orn][αMeL]LDKK([AEEA-γGlu-C18 diacid])AQ[Aib]AFIEWLLEGGHSSGAPPPSGT-NH2 [Example 171]	0.0271	0.287	0.502	0.0002	0.00289	0.00386	0.0614	36.1
H-Y[Aib]QGTFTSDFSK[αMeL]LDKK([AEEA-γGlu-C18 diacid])AQ[Aib]QFIEYLLEGGPSSGAPPPSEG-NH2 [Example 51]	0.0984	1.21	0.856	0.000421	0.0058	0.00515	0.0892	55.7
CC[C@H](C)[C@H](NC(=O)[C@H](Cc1ccccc1)NC(=O)[C@H](C)NC(=O)C(C)(C)NC(=O)[C@H](CCC(N)=O)NC(=O)[C@H](C)NC(=O)[C@H](CCCCNC(=O)CC[C@H](NC(=O)CC[C@H](NC(=O)CC[C@H](NC(=O)CCCCCCCCCCCCCCCCC(=O)O)C(=O)O)C(=O)O)C(=O)O)NC(=O)[C@H](CCCCN)NC(=O)[C@H](CC(=O)O)NC(=O)[C@H](CC(C)C)NC(=O)[C@](C)(CC(C)C)NC(=O)[C@H](CCCN)NC(=O)[C@H](CO)NC(=O)[C@H](Cc1ccccc1)NC(=O)[C@H](CC(=O)O)NC(=O)[C@H](CO)NC(=O)[C@@H](NC(=O)[C@H](Cc1ccccc1)NC(=O)[C@@H](NC(=O)CNC(=O)[C@H](CCC(N)=O)NC(=O)C(C)(C)NC(=O)[C@@H](N)Cc1ccc(O)cc1)[C@@H](C)O)[C@@H](C)O)C(=O)N[C@@H](CCC(=O)O)C(=O)N[C@@H](Cc1ccc(O)cc1)C(=O)N[C@@H](CC(C)C)C(=O)N[C@@H](CC(C)C)C(=O)N[C@@H](CCC(=O)O)C(=O)N[C@H](C)C(=O)NCC(=O)N1CCC[C@H]1C(=O)N[C@@H](CO)C(=O)N[C@@H](CO)C(=O)NCC(=O)N[C@@H](C)C(=O)N1CCC[C@H]1C(=O)N1CCC[C@H]1C(=O)N1CCC[C@H]1C(=O)N[C@@H](CO)C(=O)NCC(=O)N[C@H](C(N)=O)[C@@H](C)O [Example 205]	0.0244	0.234	0.397	0.00016	0.00271	0.00898	0.0494	67.7
H-Y[Aib]QGTFTSDFSK[αMeL]LDKK([AEEA-γGlu-C20 diacid])AQ[Aib]AFIEYLLAGGPSSGEPPPSGE[AEEA]-NH2 [Example 33]	0.0707	0.436	1.31	0.000285	0.00171	0.00704	0.106	64.6
H-Y[Aib]QGTFTSDFSK[αMeL]LDKK([AEEA-γGlu-C20 diacid])AQ[Aib]AFIEYLLAGGPSSGEPPPSEG[AEEA]-NH2 [Example 32]	0.0661	0.422	1.44	0.00028	0.00255	0.0116	0.0861	64.4
H-Y[Aib]QGTFTSDFS[Orn][αMeL]LDKK([AEEA-γGlu-C18 diacid])AQ[Aib]AFIEYLLEGGPSSGAPPPGGS[AEEA]-NH2 [Example 66]	0.0299	0.329	0.415	0.000219	0.00386	0.00371	0.0421	46.3
H-Y[Aib]QGTFTSDFS[Orn][αMeL]LDKK([AEEA-γGlu-C18 diacid])AQ[Aib]AFIEYLLAGGPSSGAPPPSGD-NH2 [Example 85]	0.0221	0.387	1.27	0.000157	0.00273	0.00763	0.326	48.3
H-Y[Aib]QGTFTSDFSK[αMeL]LDKK([AEEA-γGlu-C18 diacid])AQ[Aib]AFIEYLLEGGPSSGAPPPSGS-NH2 [Example 141]	0.0621	0.562	0.877	0.00021	0.00196	0.00177	0.0953	64.1
H-Y[Aib]QGTFTSDFS[Orn][αMeL]LDKK([AEEA-γGlu-C18 diacid])AQ[Aib]AFIEYLLAGGPSSGAPPPSGE-NH2 [Example 86]	0.0196	0.421	1.13	0.000145	0.00243	0.00723	0.0578	52.5
